Results taken from patent EP0550016A1, “Novel quinolone carboxylic acid derivatives and processes for preparing same” (KOREA RESEARCH INSTITUTE OF CHEMICAL TECHNOLOGY, priority 1991, dated 1993).
In brackets after ≈: the same amount, converted by molar mass. Where two headings read alike, the source gives them in different places.

Assays:
[1] = system: Streptococcus pyogenes 308 A; assay: In vitro anti-bacterial activity test (MIC, two-fold dilution method) against the standard strains; assay type: cell-based; conditions: Table 1 strain 1: Streptococcus pyogenes 308 A
[2] = system: Streptococcus pyogenes 77 A; assay: as above; assay type: cell-based; conditions: Table 1 strain 2: Streptococcus pyogenes 77 A; read-out: MIC
[3] = system: Streptococcus faecium MD 8b; assay: as above; assay type: cell-based; conditions: Enterococcus faecium, MD8B; Table 1 strain 3: Streptococcus faecium MD 8b; read-out: MIC
[4] = system: Staphylococcus aureus SG 511; assay: as above; assay type: cell-based; conditions: SG511; Table 1 strain 4: Staphylococcus aureus SG 511
[5] = system: Staphylococcus aureus 285; assay: as above; assay type: cell-based; conditions: Table 1 strain 5: Staphylococcus aureus 285; read-out: MIC
[6] = system: Staphylococcus aureus 503; assay: as above; assay type: cell-based; conditions: Table 1 strain 6: Staphylococcus aureus 503; read-out: MIC
Escherichia coli DC 0 [7] = assay: as above; assay type: cell-based; conditions: DC0; Table 1 strain 7: Escherichia coli DC 0
Escherichia coli DC 0 [8] = assay: as above; assay type: cell-based; conditions: DC0; Table 1 strain 8: Escherichia coli DC 0
Escherichia coli DC 2 = assay: as above; assay type: cell-based; conditions: DC2; Table 1 strain 9: Escherichia coli DC 2; read-out: MIC
Escherichia coli OTEM = assay: as above; assay type: cell-based; conditions: Table 1 strain 10: Escherichia coli OTEM
Escherichia coli 1507 E = assay: as above; assay type: cell-based; conditions: Table 1 strain 11: Escherichia coli 1507 E
[9] = system: Pseudomonas aeruginosa 9027; assay: as above; assay type: cell-based; conditions: Table 1 strain 12: Pseudomonas aeruginosa 9027
[10] = system: Pseudomonas aeruginosa 1592 E; assay: as above; assay type: cell-based; conditions: Table 1 strain 13: Pseudomonas aeruginosa 1592 E
[11] = system: Pseudomonas aeruginosa 1771; assay: as above; assay type: cell-based; conditions: Table 1 strain 14: Pseudomonas aeruginosa 1771
[12] = system: Pseudomonas aeruginosa 1771 M; assay: as above; assay type: cell-based; conditions: Table 1 strain 15: Pseudomonas aeruginosa 1771 M
Salmonella typhimurium = assay: as above; assay type: cell-based; conditions: Salmonella enterica; Table 1 strain 16: Salmonella typhimurium
[13] = system: Klebsiella aerogenes 1082 E; assay: as above; assay type: cell-based; conditions: Table 1 strain 17: Klebsiella aerogenes 1082 E
[14] = system: Klebsiella aerogenes 1522 E; assay: as above; assay type: cell-based; conditions: Table 1 strain 18: Klebsiella aerogenes 1522 E
[15] = system: Enterobacter cloacae P 99; assay: as above; assay type: cell-based; conditions: P99; Table 1 strain 19: Enterobacter cloacae P 99
[16] = system: Enterobacter cloacae 1321 E; assay: as above; assay type: cell-based; conditions: Table 1 strain 20: Enterobacter cloacae 1321 E
[17] = system: Staphylococcus aureus 88 E; assay: In vitro anti-bacterial activity test (MIC, two-fold dilution method), Table 2 strains; assay type: cell-based; conditions: Table 2 strain 1: Staphylococcus aureus 88 E
[18] = system: Staphylococcus aureus 121 E; assay: as above; assay type: cell-based; conditions: Table 2 strain 2: Staphylococcus aureus 121 E; read-out: MIC
[19] = system: Staphylococcus aureus 208 E; assay: as above; assay type: cell-based; conditions: Table 2 strain 3: Staphylococcus aureus 208 E; read-out: MIC
[20] = system: Staphylococcus aureus 256 E; assay: as above; assay type: cell-based; conditions: Table 2 strain 4: Staphylococcus aureus 256 E
[21] = system: Staphylococcus aureus 690 E; assay: as above; assay type: cell-based; conditions: Table 2 strain 5: Staphylococcus aureus 690 E; read-out: MIC
[22] = system: Staphylococcus aureus 692 E; assay: as above; assay type: cell-based; conditions: Table 2 strain 6: Staphylococcus aureus 692 E
[23] = system: Staphylococcus aureus 693 E; assay: as above; assay type: cell-based; conditions: Table 2 strain 7: Staphylococcus aureus 693 E; read-out: MIC
[24] = system: Staphylococcus aureus 694 E; assay: as above; assay type: cell-based; conditions: Table 2 strain 8: Staphylococcus aureus 694 E; read-out: MIC
[25] = system: Staphylococcus aureus 695 E; assay: as above; assay type: cell-based; conditions: Table 2 strain 9: Staphylococcus aureus 695 E; read-out: MIC
[26] = system: Staphylococcus aureus 697 E; assay: as above; assay type: cell-based; conditions: Table 2 strain 10: Staphylococcus aureus 697 E
[27] = system: Staphylococcus aureus 701 E; assay: as above; assay type: cell-based; conditions: Table 2 strain 11: Staphylococcus aureus 701 E; read-out: MIC
[28] = system: Staphylococcus aureus 703 E; assay: as above; assay type: cell-based; conditions: Table 2 strain 12: Staphylococcus aureus 703 E; read-out: MIC
[29] = system: Staphylococcus aureus 705 E; assay: as above; assay type: cell-based; conditions: Table 2 strain 13: Staphylococcus aureus 705 E; read-out: MIC
[30] = system: Staphylococcus aureus 706 E; assay: as above; assay type: cell-based; conditions: Table 2 strain 14: Staphylococcus aureus 706 E; read-out: MIC
[31] = system: Staphylococcus aureus 707 E; assay: as above; assay type: cell-based; conditions: Table 2 strain 15: Staphylococcus aureus 707 E; read-out: MIC
[32] = system: Staphylococcus aureus 708 E; assay: as above; assay type: cell-based; conditions: Table 2 strain 16: Staphylococcus aureus 708 E
[33] = system: Staphylococcus aureus 711 E; assay: as above; assay type: cell-based; conditions: Table 2 strain 17: Staphylococcus aureus 711 E; read-out: MIC
[34] = system: Staphylococcus aureus 714 E; assay: as above; assay type: cell-based; conditions: Table 2 strain 18: Staphylococcus aureus 714 E; read-out: MIC
[35] = system: Staphylococcus aureus 725 E; assay: as above; assay type: cell-based; conditions: Table 2 strain 19: Staphylococcus aureus 725 E; read-out: MIC
P. mirabilis = assay: Preventive effect against the systemic infection; assay type: in vivo; conditions: Proteus mirabilis, 168 h, NMRI mice, survival on day 7, read-out: ED₅₀
Description: (§1) 10 fold of the pathogen which leads to 100% lethality were injected intraperitoneally to male and female NMRI mice weighing 18 to 20g. Immediately and after 4 hours, the dose of test compounds which was determined by two-fold serial dilution method was administered orally or subcutaneously; and on day 7, the effectiveness was evaluated in terms of ED₅₀ calculated from the number of survived mice by the probit analysis.

S. aureus 17740 = assay: Preventive effect against the systemic infection; assay type: in vivo; conditions: Staphylococcus aureus, 168 h, NMRI mice, survival on day 7, read-out: ED₅₀
Description: as §1

## CC1COc2c(N3CCN(C)CC3)c(F)cc3c(=O)c(C(=O)O)cn1c23 (stereo not shown) [Ofloxacin, ofloxacin, reference compound]
[1]
  MIC: 3.12 µg/mL (≈ 8.65 µM)
[2]
  MIC: 1.56 µg/mL (≈ 4.33 µM)
[3]
  MIC: 0.781 µg/mL (≈ 2.16 µM)
[4]
  MIC: 0.195 µg/mL (≈ 0.54 µM)
[5]
  MIC: 0.391 µg/mL (≈ 1.08 µM)
[6]
  MIC: 0.391 µg/mL (≈ 1.08 µM)
Escherichia coli DC 0 [7]
  MIC: 0.013 µg/mL (≈ 0.036 µM)
Escherichia coli DC 0 [8]
  MIC: 0.391 µg/mL (≈ 1.08 µM)
Escherichia coli DC 2
  MIC: 0.195 µg/mL (≈ 0.54 µM)
Escherichia coli OTEM
  MIC: 0.049 µg/mL (≈ 0.136 µM)
Escherichia coli 1507 E
  MIC: 0.049 µg/mL (≈ 0.136 µM)
[9]
  MIC: 1.56 µg/mL (≈ 4.33 µM)
[10]
  MIC: 1.56 µg/mL (≈ 4.33 µM)
[11]
  MIC: 1.56 µg/mL (≈ 4.33 µM)
[12]
  MIC: 0.391 µg/mL (≈ 1.08 µM)
Salmonella typhimurium
  MIC: 0.025 µg/mL (≈ 0.0692 µM)
[13]
  MIC: < 0.002 µg/mL
[14]
  MIC: 0.049 µg/mL (≈ 0.136 µM)
[15]
  MIC: 0.025 µg/mL (≈ 0.0692 µM)
[16]
  MIC: 0.013 µg/mL (≈ 0.036 µM)
[17]
  MIC: 0.781 µg/mL (≈ 2.16 µM)
[18]
  MIC: 0.781 µg/mL (≈ 2.16 µM)
[19]
  MIC: 0.781 µg/mL (≈ 2.16 µM)
[20]
  MIC: 0.781 µg/mL (≈ 2.16 µM)
[21]
  MIC: 0.391 µg/mL (≈ 1.08 µM)
[22]
  MIC: 0.391 µg/mL (≈ 1.08 µM)
[23]
  MIC: 0.391 µg/mL (≈ 1.08 µM)
[24]
  MIC: 0.781 µg/mL (≈ 2.16 µM)
[25]
  MIC: 0.391 µg/mL (≈ 1.08 µM)
[26]
  MIC: 0.391 µg/mL (≈ 1.08 µM)
[27]
  MIC: 0.781 µg/mL (≈ 2.16 µM)
[28]
  MIC: 0.781 µg/mL (≈ 2.16 µM)
[29]
  MIC: 0.781 µg/mL (≈ 2.16 µM)
[30]
  MIC: 0.781 µg/mL (≈ 2.16 µM)
[31]
  MIC: 0.781 µg/mL (≈ 2.16 µM)
[32]
  MIC: 0.195 µg/mL (≈ 0.54 µM)
[33]
  MIC: 0.391 µg/mL (≈ 1.08 µM)
[34]
  MIC: 0.391 µg/mL (≈ 1.08 µM)
[35]
  MIC: 0.391 µg/mL (≈ 1.08 µM)
P. mirabilis; Oral Administration
  ED50: 2.21 mg/kg
P. mirabilis; sc, Subcutaneous Injection
  ED50: 0.33 mg/kg
S. aureus 17740; Oral Administration
  ED50: > 200 mg/kg
S. aureus 17740; sc, Subcutaneous Injection
  ED50: 200 mg/kg
